From the METLIN SMRT retention time set (Domingo-Almenara et al. 2019)

Assay: gradient 5% acetonitrile 3 min, to 50% in 2 min, to 85% in 15 min, held 3 min, 100 µL/min
Conditions: column: Zorbax Extend-C18 2.1 x 50 mm; eluents: water / acetonitrile, 0.1% formic acid
Outline: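 Over 3 months, pure standards in mixtures of ~100 molecules were run by HPLC coupled to a quadrupole time-of-flight mass spectrometer in positive and negative ionization mode. The column was a Zorbax Extend-C18 (2.1 × 50 mm, 1.8 μm) at 100 μL/min, eluted with water and acetonitrile each holding 0.1% formic acid, with 40 μL dead and 900 μL dwell volumes. Retention time was determined from adduct peaks chosen by software and checked manually.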

Compound | RP-LC retention time
CC(C)Cn1cc(S(=O)(=O)Nc2ccc(Cl)cc2F)c2cccnc21 | 1010 s
COc1ccc(N2C(=O)N[C@H]3C[C@@]2(C)Oc2c(OC)cccc23)c(OC)c1 | 712 s
Cc1cccc(Cn2nc(-c3nc(C(C)(C)C)no3)ccc2=O)c1 | 1110 s
O=c1c2sccc2n(Cc2nc(-c3ccccc3)no2)c(=O)n1-c1ccccc1 | 932 s
CN1C(=O)c2cccn2CC1CNS(=O)(=O)c1ccc(F)cc1 (stereo not given) | 679 s
CC1(C)CC(=O)c2cnc(N3CCN(c4ccccn4)CC3)nc2C1 | 621 s
CN(C)c1cccc(C(=O)NCC2(O)CCCC2)c1 | 569 s
COc1ccc(CNC(=O)NC2CCN(c3ccc(F)c(C)c3)C2=O)cc1 (stereo not given) | 783 s
CCN1c2ccc(F)cc2C(=O)NC12CCN(C(=O)c1cccc(F)c1)CC2 | 791 s
CCOC(=O)c1ccc(Nc2c(-c3cccc(Cl)c3)nc3cnccn23)cc1 | 978 s
CCOC(=O)C1=C(CN(CC)Cc2ccccc2)NC(=O)NC1c1ccc(F)cc1 (stereo not given) | 696 s
Cc1ccccc1-c1nnc(CSc2nnc(NC(=O)Cc3ccc(F)cc3)s2)o1 | 923 s
COC(=O)C1=CN(c2ccc(OC)c(Cl)c2)c2cc(F)ccc2S1(=O)=O | 914 s
CCCCNC(=O)Cn1nc(C)c2nn(-c3ccc(Cl)cc3)c(-n3cccc3)c2c1=O | 1020 s
COc1cccc(Cn2ccn3nc(-c4ccc(OC)c(OC)c4)cc3c2=O)c1 | 916 s
COc1cccc(CNC(=O)CN2C(=O)CSc3cccn3-c3ccccc32)c1 | 846 s
Fc1ccc(-c2nnc(Cc3nc(-c4cccc(F)c4)no3)o2)cc1 | 990 s
Cc1cc2c(cc1CNC(=O)c1ccco1)OCCCO2 | 750 s
Cc1nc(CSCC(=O)Nc2ccc(Cl)cc2)cs1 | 778 s
COC(=O)c1cc(OCC(=O)Nc2ccc3c(c2)OCCO3)c2ccccc2n1 | 755 s
CCOc1ccc(NS(=O)(=O)c2cc(-c3nc(C(C)(C)C)cs3)cs2)cc1 | 1240 s
Cc1nc(N)n(CC(=O)N2CCc3ccccc32)c(=O)c1C | 616 s
Fc1ccc(-c2ccc(-c3nn4c(-c5ccco5)nnc4s3)o2)cc1 | 896 s
O=C(NCC(=O)N1CCCc2ccccc21)c1cccs1 | 761 s
CC(C)Cn1cc(CCNC(=O)c2cccc(Br)c2)c2cccnc21 | 922 s
CCn1cc(S(=O)(=O)N2CCCC2c2nncn2Cc2ccncc2)cn1 (stereo not given) | 553 s
O=C(Nc1ccc(F)c(Cl)c1)Nc1nccn(-c2ccc3c(c2)CCC3)c1=O | 1180 s

Compound | RP-LC retention time
CCCN1C(=O)CCc2c(C)nc(-c3ccc(C)cc3)nc21 | 1150 s
CCc1ccc(NC(=O)Cn2c(=O)n(-c3ccc(C)cc3)c(=O)c3c2cc(C)n3C)cc1 | 956 s
CC1(C)Cc2cccc(OCC(=O)Nc3ncc([N+](=O)[O-])s3)c2O1 | 906 s
Cc1ccn2cc(-c3ccc(NC(=O)c4ccccc4[N+](=O)[O-])cc3)nc2n1 | 622 s
COc1ccc(Cn2nnc3cc(C(=O)Nc4cc(C)on4)ccc32)cc1 | 817 s
COc1ccc(-c2noc(-c3nc(C)no3)n2)c(OC)c1 | 888 s
COc1ccc(-c2nc(-c3ccc4oc(C)nc4c3)no2)cn1 | 1060 s
Cc1c(-c2ccccc2)n(O)[n+]([O-])c1-c1ccccc1 | 1020 s
COC(=O)c1ccccc1Nc1c(-c2ccc3c(c2)OCO3)nc2cnccn12 | 932 s
CCn1c(=O)c2ccccc2n(Cc2nc(-c3ccc(C(F)(F)F)cc3)no2)c1=O | 1120 s
CCOC(=O)c1sc(NC(C)=O)nc1-c1ccccc1 | 848 s
CC(C)Oc1ccc(C(=O)N[C@H](CNC(=O)CN(C)C)Cc2ccc(-c3cn4cccc([C@H](C)O)c4n3)cc2)cc1Cl | 664 s
Cc1ccc(N2CC(c3nc(-c4cccc(-c5ccnn5C)c4)no3)CC2=O)cc1 (stereo not given) | 605 s
COc1ccccc1C(=O)NC1CCN(c2cc(-c3cccs3)[nH]n2)C1 (stereo not given) | 717 s
COc1ncc(C(=O)NCc2ccc(N(C)C)cc2)cn1 | 564 s
Nc1c(CC(=O)O)cccc1C(=O)c1ccc(Br)cc1 | 909 s
Cc1cnc(C2CC2)n1C1CCN(C(=O)C2(c3ccccc3)CC2)CC1 | 636 s
CCNC(=O)c1ccc(-c2nc3cc(NS(=O)(=O)c4cccs4)ccc3n2C)cc1 | 630 s
C=CCN1C(=O)COc2ccc(-c3csc(NC(=O)CCCC)n3)cc21 | 953 s
COc1ccc(S(=O)(=O)N2CCC(c3noc(-c4cccnc4)n3)C2)cc1 (stereo not given) | 793 s
CCc1ccccc1N1C[C@@]23C=C[C@@H](O2)[C@H](C(=O)OC)[C@@H]3C1=O | 730 s
Cc1nnc(-c2ccc3ccn(CC(=O)NCc4ccc5c(c4)OCO5)c3c2)o1 | 756 s
CCc1csc(-c2ccc(N3CCN(C(=O)c4ccc(Cl)nc4)CC3)nc2)n1 | 832 s
CCOc1ccc(NS(=O)(=O)c2ccc3c(c2)CCCC(=O)N3)cc1 | 709 s
Cc1cc(-c2nnc(-c3ccco3)o2)c(C)n1CC(=O)Nc1ccc(F)c(F)c1 | 909 s
CCOc1ccc(NC(=O)Cn2c(=O)cc(-c3nc(C)no3)c3ccccc32)cc1 | 862 s
Cc1ccn2cc(-c3cccc(S(=O)(=O)N4CCCC4)c3)nc2c1 | 611 s

Results, then the compound that gave them:

RP-LC retention time | Compound
748 s | Cc1ccc(CCCN2CCCC(COc3ccccc3C(=O)N3CCCCC3)C2)o1 (stereo not given)
992 s | Cc1ccc(S(=O)(=O)N2C[C@@H](F)C[C@H]2C(=O)N2CCc3ccccc3C2)c(C)c1
930 s | CC(C)Oc1ccc(C(=O)N2CCC3(CC2)C(=O)N(C)c2ccccc23)cc1
1030 s | Cc1ccc(S(=O)(=O)N2CCC(n3cnc4c(C)cccc4c3=O)CC2)cc1F
586 s | COc1ccc(C)cc1NC(=O)N1CCC(c2nc3ccncc3n2CC(C)C)C1 (stereo not given)
747 s | CCc1nc2cc(N3CCCC(C(=O)NC(C)C)C3)cnc2nc1CC (stereo not given)
646 s | CC(=O)c1ccc(NC(=O)c2nc(N3CCCC3)c3c(C)cc(C)nc3n2)cc1
579 s | COCCOCC(=O)N1[C@@H]2CC[C@H]1CC(NC(=O)c1cnc(C)cn1)C2 (stereo not given in full)
646 s | COc1ccc(Cl)cc1S(=O)(=O)N1CCC2(CC1)c1nccn1CCN2C
957 s | CCOC(=O)c1c(S(=O)(=O)N2CCC(C(=O)Nc3ccc(Cl)cc3)CC2)c(C)n(CC)c1C
586 s | CCNc1cc(N2CCCC(CCC(=O)N3CCOCC3)C2)ncn1 (stereo not given)
808 s | Cc1sc(-c2nnc(C(C)C)o2)cc1NS(C)(=O)=O
753 s | COc1ccccc1-c1noc(C2CCCN2C(=O)NC(C)C)n1 (stereo not given)
639 s | O=C(c1ccoc1)N1CCC2(CCCCO2)CC1
877 s | CCOC(=O)Cn1nc2ccc(S(=O)(=O)N3CCC(C)CC3)cn2c1=O
743 s | CCOC(=O)CNC(=O)N1CCCN(C2=NS(=O)(=O)C(c3ccc(C)cc3)=C2C)CC1
878 s | CCCCC(=O)N1CCCC(C)C1 (stereo not given)
802 s | CCOC(=O)c1c(C)[nH]c(C(=O)N2CCC(CC(=O)NCc3ccccc3C)CC2)c1C

RP-LC retention time | Compound
1000 s | CCOC(=O)c1sc(NC(=O)c2cc(OC)ccc2OC)cc1C
566 s | CCn1ccc2sc(C)c(C(=O)N3CCC(N4CCCCC4)CC3)c2c1=O
910 s | CC(C(=O)Nc1ccc(Cl)cc1)C1CCN(C(=O)Nc2ccccc2)CC1 (stereo not given)
511 s | COCc1ncc(C)n1CC1CN(C(=O)c2ocnc2C)C1
639 s | COCCN1C(=O)c2cccn2CC1CNC(=O)CC(C)C (stereo not given)
673 s | COc1ccc(-c2c(C)noc2NC(C)=O)cc1S(=O)(=O)N1CCCC1
599 s | O=C(Cc1cccs1)N1CC(c2noc(C3CCCN3CC3CC3)n2)C1 (stereo not given)
608 s | Cc1[nH]c(C(=O)N2CCCC(C(=O)NCCCN3CCOCC3)C2)c(C)c1C(=O)OC(C)C (stereo not given)
936 s | CC1CCN(C(=O)C2c3ccccc3CCN2CC(=O)Nc2ccc(F)cc2Cl)CC1 (stereo not given)
838 s | Cc1cc(N2CCN(S(=O)(=O)c3ccccc3Cl)CC2)nc(NC2CCCCC2)n1
902 s | CCCc1cc(C2CCCN2C(=O)Nc2ccccc2C)no1 (stereo not given)
1150 s | CCC(C)NC(=O)c1cn(C)nc1S(=O)(=O)N1CCN(c2cc(Cl)ccc2C)CC1 (stereo not given)
740 s | Cc1nc(C2CCOCC2)n(C2CCN(S(=O)(=O)c3ccccc3Cl)C2)n1 (stereo not given)
845 s | Cc1ccc(S(=O)(=O)N2CC(c3nc(C)no3)C3(CCOCC3)C2)cc1 (stereo not given)
807 s | COc1cccc(Cn2cccc(S(=O)(=O)N3CCCC3)c2=O)c1
687 s | CC(C)Cc1ccc(S(=O)(=O)N2CCc3c(c(CN4CCN(C)CC4)nn3C)C2)cc1
985 s | CC(C)n1c(=O)sc2cc(S(=O)(=O)N3CCC(C(=O)NCCc4ccccc4)CC3)ccc21
830 s | CCOc1ccc(CNC(=O)C2CCCN(c3ccc(=O)n(-c4ccc(C)c(Cl)c4)n3)C2)cc1 (stereo not given)
